From patent US7091185B2, “Periodic antimicrobial peptides” (Dow Global Technologies Inc., priority 2003, dated 2006)
Where no end group is shown, it is not given here.

Assays:
[1] = test system: Staph. aureus ATCC 6538; experiment: HMARQ biocidal kill activity; assay type: cell-based; conditions: Staph. aureus ATCC 6538 (gram+)
Method in brief: (§1)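 Inoculated sample matrix (200–300 μL) added to biocide in 96-well blocks alongside untreated controls; for kill-time runs organisms added after biocide. Viable counts by MPN serial 1:10 dilution in TSB with 50 μM resazurin indicator; values are ppm (μg/mL) giving 3.5 log kill versus untreated at 15 min or 24 h.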

[2] = test system: P. aeruginosa ATCC 15442; experiment: HMARQ biocidal kill activity; assay type: cell-based; conditions: P. aeruginosa ATCC 15442 (gram−)
Method in brief: as §1

[3] = Red blood cell toxicity; assay type: cell-based; conditions: red blood cells (RBC); RBCs; concentration required for 50% toxicity; read-out: TX50
[4] = test system: Red blood cells (RBC); experiment: Red blood cell toxicity; assay type: cell-based
[5] = test system: HeLa cell line; experiment: HeLa MTS cellular reduction toxicity assay; assay type: cell-based; conditions: for TX50: 24 h, MTS
Method in brief: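 HeLa cells grown 48 h, then exposed to serial 2-fold peptide dilutions for 24 h at 37 °C, 5% CO2. MTS-PMS added for 1 h; absorbance at 490 nm compared with untreated cells. TX50 (50% toxicity concentration) from sigmoidal curve fit.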

[6] = test system: C. albicans 10231; assay type: cell-based; conditions: 10231
Method in brief: (§2)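 Broth microdilution per NCCLS, adapted for fungi with Sabouraud Dextrose Broth; KFAK-repeat peptide multimers in two-fold dilutions from 1,000 to 1 μg/ml. Growth by OD620 after overnight incubation; IC50 by sigmoidal fit, in duplicate, repeated at least twice.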

[7] = test system: Cr. Neoformans 32045; assay type: cell-based
Method in brief: as §2

[8] = test system: P. aeruginosa ATCC 10145; conditions: ATCC 10145
[9] = test system: E. coli ATCC 2592; conditions: ATCC 2592
[10] = test system: S. aureus (methicillin resistant) ATCC 33591; conditions: ATCC 33591

Sequence	ppm needed for 3.5 log kill at 15 min [1]	ppm needed for 3.5 log kill at 24 hr [1]	ppm needed for 3.5 log kill at 15 min [2] [ppm]	ppm needed for 3.5 log kill at 24 hr [2] [ppm]	HC50 at 24 h [3] [µg/mL]	% kill at 250 μg/ml [4] [%]	% kill at 500 μg/ml [5] [%]	TX50 [5] [µg/mL]	IC50 [6] [µg/mL]	MIC [6] [µg/mL]	IC50 [7] [µg/mL]	MIC [7] [µg/mL]	IC50 [8] [µg/mL]	MIC [8] [µg/mL]	IC50 [9] [µg/mL]	MIC [9] [µg/mL]	IC50 [10] [µg/mL]	MIC [10] [µg/mL]
KFKKFKKFKKFKKFKKFKKFKKFKKFK [KFK (9), KFK KFK KFK KFK KFK KFK KFK KFK KFK]	>500 ppm	500 ppm	>500	63	> 500	−6	80.7	>500	194	250 to 500	39	62 to 125	68	125	14	16 to 32	92	125 to 250
LKKLLKKLLKKLLKKLLKKLLKKL [LKKL (6), LKKL LKKL LKKL LKKL LKKL LKKL]	4 ppm	125 ppm	>500	8	11	100	−1.3	26	213	250 to 500	93	>125	58	65	31	62 to 125	98	>250
LKKLLKKLLKKLLKKLLKKLLKKLLKKLLKKL [LKKL (8), LKKL LKKL LKKL LKKL LKKL LKKL LKKL LKKL]	>500 ppm	125 ppm	4	8	8	100	0.1	23	179	250 to 500	56	62 to 125	61	125	37	62 to 125	80	>250
LKLKLKLKLKLKLKLKLK [LK (9), LK LK LK LK LK LK LK LK LK]	16 ppm	4 ppm	8	8	> 500	21	46.0	137	216	250 to 500	4.9	32 to 62	74	80	35	62 to 125	50	250 to 500
LKLKLKLKLKLKLKLKLKLK [LK (10), LK LK LK LK LK LK LK LK LK LK]	16 or less ppm	16 or less ppm	8		> 500	27	65.0	>500	187	250 to 500	3.0	62 to 125	47	125	127	150 to 250	29	125 to 250
